The values below come from patent publication US20250042911A1, “NOVEL BENZOPYRAN DERIVATIVE AND USE THEREOF” (SPARK BIOPHARMA, INC, priority 2021, published 2025).

One assay relates to melanoma cells (B316F10). Kind of assay: Tumor growth inhibition in C57BL/6 syngeneic mouse model implanted with melanoma cells. Format: in vivo. The conditions noted are these: Mus musculus, po, 20 mg/kg orally once a day for 9 or 10 days; female C57BL/6 mice with implanted melanoma cells; tumor volume vs control group; read-out: TGI (%). Here is the method: The tumor growth inhibition effect of benzopyrene derivatives was evaluated in a C57BL/6 mouse tumor model (syngeneic mouse model) in which melanoma cells (B316F10) derived from C57BL/6 mice are implanted.
After the quarantine and acclimation period was over, a cell suspension prepared with 5×10^5 cells/0.1 mL PBS was filled into a disposable syringe and administered in an amount of 0.1 mL PBS/head subcutaneously to the right back of healthy test animals (female C57BL/6, 7 weeks old) for implantation. After cell line implantation, general symptoms were observed once daily during the engraftment and growth period. Animals with no abnormalities in their health and whose tumor volume reached 50 to 100 mm^3 when measured with a digital caliper were selected. Then, based on tumor volume and body weight, the groups were separated so that the average tumor volume per group was 70 to 100 mm^3. Ten (10) animals were separated per group, and 20 mg/kg of benzopyran derivatives were administered orally once a day for 9 or 10 days. Tumor volume was measured once every 2 or 3 days.
The measured tumor volume of the test compound administered groups was compared with that of the control group and is represented in Table 2 as the tumor growth inhibition (TGI, %).

The next assay concerns human M2 macrophages. Nature of the assay: Inhibition of human M2 macrophage activity, hCCL22 in culture supernatant by ELISA. Format: cell-based. The conditions noted are these: for EC50: hCCL22 secretion, THP-1 derived M2-like macrophages, compound present during 72 hours of differentiation. Here is the method:
To obtain human M2 macrophages, human monocytes (THP-1 monocyte, CD4 expression) were stabilized in a 96-well plate for 24 hours and then incubated in culture media containing 100 ng/mL phorbal 12-myristate-13-acetate (PMA; Sigma, P8139) for 24 hours to differentiate into M0 macrophages (macrophage-like phenotype). It was confirmed that differentiated M0 macrophages had reduced CD4 expression and expressed CD11b. M0 macrophages in the plate well were washed once with culture media and incubated in culture media containing 25 ng/mL hIL-4 (Peprotech, 200-04-50) and 25 ng/mL hIL-13 (Peprotech, 200-13-50) for 72 hours to differentiate into M2-like macrophages. Test compounds were diluted by concentration in M2 differentiation media and treated simultaneously during a differentiation period of 72 hours. The inhibitory effect of the test compounds on M2 macrophages was determined by measuring hCCL22 in the medium culture supernatant cultured for 72 hours using an ELISA assay (R&D system, DMD00). The results of the activity measurements are represented in Table 3 (EC50), Table 4 ([…] inhibitory activity at 5 μM) and Table 5 (hCCL22 inhibitory activity at 10 μM).
For orientation: ELISA stands for enzyme-linked immunosorbent assay.

Each structure is given as a SMILES string. Structures can show the parent of a compound that is named as a salt. Where only a bound is given, the exact number is not on record here.

On to `CC(=O)Oc1ccc2c(c1)OC(C)(C)C1=CCn3c(=O)n(-c4ccc(C(C)=O)cc4)c(=O)n3C12` (stereo not drawn) [Example 60, 2-(4-acetylphenyl)-7,7-dimethyl-1,3-dioxo-2,3,5,12b-tetrahydro-1H,7H-chromeno[4,3-c][1,2,4]triazolo[1,2-a]pyridazin-10-yl acetate], for which the inhibition in vivo at 20 mg/kg with melanoma cells (B316F10) is 56.5%.

Consider `CC(=O)c1ccc(-n2c(=O)n3n(c2=O)C2C(=CC3)C(C)(C)Oc3cc(OP(=O)(O)O)ccc32)cc1` (stereo not drawn) [Example 69, 2-(4-acetylphenyl)-7,7-dimethyl-1,3-dioxo-2,3,5,12b-tetrahydro-1H,7H-chromeno[4,3-c][1,2,4]triazolo[1,2-a]pyridazin-10-yl dihydrogen phosphate], for which, in the assay on melanoma cells (B316F10), the inhibition in vivo at 20 mg/kg is 25 to 66%.

In the case of `COCCOC(=O)Oc1ccc2c(c1)OC(C)(C)C1=CCn3c(=O)n(-c4ccc(C(C)=O)cc4)c(=O)n3C12` (stereo not drawn) [Example 73, 2-(4-acetylphenyl)-7,7-dimethyl-1,3-dioxo-2,3,5,12b-tetrahydro-1H,7H-chromeno[4,3-c][1,2,4]triazolo[1,2-a]pyridazin-10-yl (2-methoxyethyl) carbonate], the inhibition in vivo at 20 mg/kg with melanoma cells (B316F10) worked out at 31%.

`CC(=O)c1ccc(-n2c(=O)n3n(c2=O)C2C(=CC3)C(C)(C)Oc3cc(OC(=O)N4CCCC4)ccc32)cc1` (stereo not drawn) [Example 74, 2-(4-acetylphenyl)-7,7-dimethyl-1,3-dioxo-2,3,5,12b-tetrahydro-1H,7H-chromeno[4,3-c][1,2,4]triazolo[1,2-a]pyridazin-10-yl pyrrolidine-1-carboxylate]: in the assay on melanoma cells (B316F10), the inhibition in vivo at 20 mg/kg fell in the range of 25 to 66%.

Consider `COCCOCCOCCOCCOC(=O)Oc1ccc2c(c1)OC(C)(C)C1=CCn3c(=O)n(-c4ccc(C(C)=O)cc4)c(=O)n3C12` (stereo not drawn) [Example 75, 2-(4-acetylphenyl)-7,7-dimethyl-1,3-dioxo-2,3,5,12b-tetrahydro-1H,7H-chromeno[4,3-c][1,2,4]triazolo[1,2-a]pyridazin-10-yl (2,5,8,11-tetraoxatridecan-13-yl) carbonate], for which, in the assay with melanoma cells (B316F10), the inhibition in vivo at 20 mg/kg was 25.5%.

Regarding `CC(=O)c1ccc(-n2c(=O)n3n(c2=O)C2C(=CC3)C(C)(C)Oc3cc(OC(=O)[C@@H](N)CC(C)C)ccc32)cc1` (stereo partly drawn) [Example 81, 2-(4-acetylphenyl)-7,7-dimethyl-1,3-dioxo-2,3,5,12b-tetrahydro-1H,7H-chromeno[4,3-c][1,2,4]triazolo[1,2-a]pyridazin-10-yl L-leucinate 2,2,2-trifluoroacetic acid], the inhibition in vivo at 20 mg/kg with melanoma cells (B316F10) was in the range of 25 to 66%.

Regarding `CC(=O)c1ccc(-n2c(=O)n3n(c2=O)C2C(=CC3)C(C)(C)Oc3cc(OC(=O)N(C)CCC(=O)O)ccc32)cc1` (stereo not drawn) [Example 91, 3-((((2-(4-acetylphenyl)-7,7-dimethyl-1,3-dioxo-2,3,5,12b-tetrahydro-1H,7H-chromeno[4,3-c][1,2,4]triazolo[1,2-a]pyridazin-10-yl)oxy)carbonyl)(methyl)amino)propanoic acid], in the assay on melanoma cells (B316F10), the inhibition in vivo at 20 mg/kg is 25 to 66%.

With `CC(=O)c1ccc(-n2c(=O)n3n(c2=O)C2C(=CC3)C(C)(C)Oc3cc(OC(=O)N4CCN(C(=O)CN(C)C)CC4)ccc32)cc1` (stereo not drawn) [Example 99, 2-(4-acetylphenyl)-7,7-dimethyl-1,3-dioxo-2,3,5,12b-tetrahydro-1H,7H-chromeno[4,3-c][1,2,4]triazolo[1,2-a]pyridazin-10-yl 4-(dimethylglycyl)piperazine-1-carboxylate hydrochloride], in the assay on human M2 macrophages, the EC50 (commonly the concentration that produces a half-maximal response) was determined as 32 µM.

In the assay with human M2 macrophages, `CC(=O)c1ccc(-n2c(=O)n3n(c2=O)C2C(=CC3)C(C)(C)Oc3cc(OC(=O)N4C(C)CNCC4C)ccc32)cc1` (stereo not drawn) [Example 100, 2-(4-acetylphenyl)-7,7-dimethyl-1,3-dioxo-2,3,5,12b-tetrahydro-1H,7H-chromeno[4,3-c][1,2,4]triazolo[1,2-a]pyridazin-10-yl 2,6-dimethylpiperazine-1-carboxylate hydrochloride] yielded a half-maximal effective concentration (EC50) of 15.9 µM.

In the assay with human M2 macrophages, `CC(=O)c1ccc(-n2c(=O)n3n(c2=O)C2C(=CC3)C(C)(C)Oc3cc(OC(=O)N4C(C)CN(C(=O)[C@@H]5CCCN5)CC4C)ccc32)cc1` (stereo partly drawn) [Example 101, 2-(4-acetylphenyl)-7,7-dimethyl-1,3-dioxo-2,3,5,12b-tetrahydro-1H,7H-chromeno[4,3-c][1,2,4]triazolo[1,2-a]pyridazin-10-yl 2,6-dimethyl-4-prolylpiperazine-1-carboxylate hydrochloride] gave an EC50 of 17.9 µM.

In the assay on human M2 macrophages, `CC(=O)c1ccc(-n2c(=O)n3n(c2=O)C2C(=CC3)C(C)(C)Oc3cc(OCP(=O)(O)O)ccc32)cc1` (stereo not drawn) [Example 115, disodium (((2-(4-acetylphenyl)-7,7-dimethyl-1,3-dioxo-2,3,5,12b-tetrahydro-1H,7H-chromeno[4,3-c][1,2,4]triazolo[1,2-a]pyridazin-10-yl)oxy)methyl)phosphonate] registered an EC50 above 80 µM.

In turn, `CC(=O)c1ccc(-n2c(=O)n3n(c2=O)C2C(=CC3)C(C)(C)Oc3cc(OC(=O)N4CCNCC4(C)C)ccc32)cc1` (stereo not drawn) [Example 118, 2-(4-acetylphenyl)-7,7-dimethyl-1,3-dioxo-2,3,5,12b-tetrahydro-1H,7H-chromeno[4,3-c][1,2,4]triazolo[1,2-a]pyridazin-10-yl 2,2-dimethylpiperazine-1-carboxylate hydrochloride] returned a half-maximal effective concentration (EC50) in the assay on human M2 macrophages of 5.3 µM.

Turning to `CC(=O)c1ccc(-n2c(=O)n3n(c2=O)C2C(=CC3)C(C)(C)Oc3cc(OC(=O)N4CCN(C(=O)CN(C)C)CC4(C)C)ccc32)cc1` (stereo not drawn) [Example 119, 2-(4-acetylphenyl)-7,7-dimethyl-1,3-dioxo-2,3,5,12b-tetrahydro-1H,7H-chromeno[4,3-c][1,2,4]triazolo[1,2-a]pyridazin-10-yl 4-(dimethylglycyl)-2,2-dimethylpiperazine-1-carboxylate hydrochloride], in the assay on human M2 macrophages, the EC50 turned out to be 9.5 µM.

As to `CC(=O)c1ccc(-n2c(=O)n3n(c2=O)C2C(=CC3)C(C)(C)Oc3cc(N4CCC4)ccc32)cc1` (stereo not drawn) [Example 141, 2-(4-acetylphenyl)-10-(azetidin-1-yl)-7,7-dimethyl-5,12b-dihydro-1H,7H-chromeno[4,3-c][1,2,4]triazolo[1,2-a]pyridazine-1,3(2H)-dione], the inhibition (as a rule, the relative decrease from the control value, in per cent) at 10 µM with human M2 macrophages (Macrophage, hCCL22 inhibitory activity at 10 μM, 72 hours) is 94.2%. Moreover, the concentration for a half-maximal effect (EC50) in the assay with human M2 macrophages is 7.2 µM.

Regarding `CC1(C)Oc2cc(OP(=O)(O)O)ccc2C2C1=CCn1c(=O)n(-c3ccc(C(F)(F)F)cc3)c(=O)n12` (stereo not drawn) [Example 142, 7,7-dimethyl-1,3-dioxo-2-(4-(trifluoromethyl)phenyl)-2,3,5,12b-tetrahydro-1H,7H-chromeno[4,3-c][1,2,4]triazolo[1,2-a]pyridazin-10-yl dihydrogen phosphate], the response in the assay with human M2 macrophages was half-maximal at 6.3 µM (EC50).

`CC1(C)Oc2cc(OP(=O)(O)O)ccc2C2C1=CCn1c(=O)n(-c3ccc(F)cc3)c(=O)n12` (stereo not drawn) [Example 143, 2-(4-fluorophenyl)-7,7-dimethyl-1,3-dioxo-2,3,5,12b-tetrahydro-1H,7H-chromeno[4,3-c][1,2,4]triazolo[1,2-a]pyridazin-10-yl dihydrogen phosphate] came in with an EC50 in the assay with human M2 macrophages of 9.4 µM.

As for `CC1(C)Oc2cc(OP(=O)(O)O)ccc2C2C1=CCn1c(=O)n(-c3ccc(C(C)(C)C)cc3)c(=O)n12` (stereo not drawn) [Example 144, 2-(4-(tert-butyl)phenyl)-7,7-dimethyl-1,3-dioxo-2,3,5,12b-tetrahydro-1H,7H-chromeno[4,3-c][1,2,4]triazolo[1,2-a]pyridazin-10-yl dihydrogen phosphate], in the assay on human M2 macrophages, the EC50 stood at 5.4 µM.

`CN(C)C(=O)Oc1ccc2c(c1)OC(C)(C)C1=CCn3c(=O)n(-c4ccc(C(F)(F)F)cc4)c(=O)n3C12` (stereo not drawn) [Example 145, 7,7-dimethyl-1,3-dioxo-2-(4-(trifluoromethyl)phenyl)-2,3,5,12b-tetrahydro-1H,7H-chromeno[4,3-c][1,2,4]triazolo[1,2-a]pyridazin-10-yl dimethylcarbamate]: the 50% effective concentration (EC50) in the assay with human M2 macrophages amounted to 77.3 µM.

In turn, `CN(C)C(=O)Oc1ccc2c(c1)OC(C)(C)C1=CCn3c(=O)n(-c4ccc(F)cc4)c(=O)n3C12` (stereo not drawn) [Example 146, 2-(4-fluorophenyl)-7,7-dimethyl-1,3-dioxo-2,3,5,12b-tetrahydro-1H,7H-chromeno[4,3-c][1,2,4]triazolo[1,2-a]pyridazin-10-yl dimethylcarbamate] showed a concentration for a half-maximal effect (EC50) with human M2 macrophages above 80 µM.

As for `CN(C)C(=O)Oc1ccc2c(c1)OC(C)(C)C1=CCn3c(=O)n(-c4ccc(C(C)(C)C)cc4)c(=O)n3C12` (stereo not drawn) [Example 147, 2-(4-(tert-butyl)phenyl)-7,7-dimethyl-1,3-dioxo-2,3,5,12b-tetrahydro-1H,7H-chromeno[4,3-c][1,2,4]triazolo[1,2-a]pyridazin-10-yl dimethylcarbamate], the half-maximal effective concentration (EC50) in the assay on human M2 macrophages is above 80 µM.
